The record followed here is PubChem BioAssay AID1902 (Broad Institute, 2009).

“And” between values parts separate entries of the source, which are not always exact repeats. Identical values can stand only once. The source made the active and inactive calls.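 The calls were made as follows: active = EC50 no more than a set limit of log units above the highest dose; inactive = the rest.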 Bounds are passed on as bounds.

The assay concerns the target S. pyogenes SKKanGAS, kanamycin survival, BacTiterGlo, 6 h. Description: SKKanGAS survival reduction under kanamycin, dose response, streptokinase promoter inhibitor project, SKKanGAS strain, luminescence, dose confirmation (AID 1902).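 Also: lower survival reflects blocked streptokinase promoter driving kanamycin resistance gene.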
Usually EC50 stands for the concentration at which the effect is half-maximal. Turning to `CCCCOC(=O)c1ccc(NC(=S)N2CCN(c3ncc4c(=O)c(C(=O)O)cn(CC)c4n3)CC2)cc1`, the EC50 was 2.04 µM. To `CCOc1cccc(/C=N/Nc2ccc(S(=O)(=O)N(CC)CC)cn2)c1O` belongs 2.94 µM; to `CCCCCCCCCCCCC/C=C/[C@@H](O)[C@@H](N)CO`, 2.56 µM. As to `CCn1cc(CN2CCC(C(=O)Nc3ccc(Oc4cccnc4)cc3)CC2)cn1`, the EC50 was > 15 µM (inactive). Regarding `O=C(NNC(=O)c1cc(-c2ccccc2)nc2ccccc12)Nc1cccc(Cl)c1`, the EC50 was 3.87 µM. Turning to `CCN1/C(=C\C=C\C2=[N+](CC)c3ccccc3C2(C)C)C(C)(C)c2ccccc21`, the EC50 was 7.34 µM.

Turning to `CC(C)Cn1c(O)c(N=NC(=O)c2cccc(S(=O)(=O)N3CCCCC3)c2)c2ccccc21`, the EC50 was 6.04 µM. Turning to `CC[C@H]1OC(=O)[C@H](C)[C@@H](O[C@H]2C[C@@](C)(OC)[C@@H](O)[C@H](C)O2)[C@H](C)[C@@H](O[C@@H]2O[C@H](C)C[C@H](N(C)C)[C@H]2O)[C@](C)(O)C[C@@H](C)C(=O)[C@H](C)[C@@H](O)[C@]1(C)O`, the EC50 was under 0.06 µM. For `COc1cccc(C(=O)Oc2ccc(/C=N/Nc3ccc(C(=O)O)cc3)cc2OC)c1`, the EC50 was 6.23 µM.

Turning to `CC(C)(C)c1ccc(O)c(N=Cc2c(O)ccc3ccccc23)c1`, the EC50 is 5.12 µM. `COc1ccc(-c2nc(NC(=O)C3CC(=O)N(c4ccc5c(c4)OCCO5)C3)sc2C)cc1` (stereo unspecified): the EC50 was 12 µM. To `O=C(N/N=C/c1c[nH]c2ccccc12)c1cc(-c2ccc(-c3ccccc3)cc2)n[nH]1` belongs 2.89 µM. Regarding `NCCCn1c(C(=O)c2cc(Cl)c(N)c(Cl)c2)c2ccc([N+](=O)[O-])cc2[n+]1[O-]`, the EC50 is 4.25 µM. With `Cc1cc(C)cc(C(=O)N2CCC(CCC(=O)NC3CC3)CC2)c1`, the EC50 is > 15 µM (inactive). As for `OC(COc1ccc2ccccc2c1Br)Cn1cnc(-c2ccccc2)c1` (stereo unspecified), the EC50 was 5.71 µM. As for `Cc1cccc(NC(=O)c2nc[nH]c2C(=O)N[C@@H](CC(C)C)C(=O)OCc2ccccc2)c1`, the concentration giving a half-maximal response (EC50) was 1.68 µM. With `Cc1ccccc1CN1CCCN(Cc2ccc(Cl)cc2)S1(=O)=O` the figure was 4.05 µM. To `CCOc1cc(/C=N/Nc2cc(C)nc(-n3nc(C)cc3C)n2)ccc1O` belongs 0.853 µM. For `Cn1c(SCC(=O)Nc2cccc3ccccc23)nc(O)cc1=O`, the EC50 is > 15 µM (inactive).

For `O=[N+]([O-])c1ccc(/C=N/Nc2nc(-c3ccccc3)c3cc(Br)ccc3n2)o1`, the half-maximal effective concentration (EC50) is 0.466 µM. With `CCCCCCCCCCCCCCCCn1cc[n+](C)c1` the figure was 1.9 µM and 2.05 µM; with `O=S(=O)(NCCSCc1c(Cl)cccc1Cl)c1ccc2c(c1)OCCO2`, 7.45 µM. In the case of `CC(CNC(=S)Nc1cc(F)cc(F)c1)CSc1ccc(Cl)cc1` (stereo unspecified), the concentration giving a half-maximal response (EC50) is 8.56 µM. For the molecule `O=C(/C=C1\NC2(CCCC2)Cc2ccccc21)C(=O)N/N=C/c1ccccc1O`, the EC50 is 2.27 µM.

Take `Cc1[nH]n(-c2ccc(Cl)cc2)c(=O)c1/C=N/n1c(C)nc2ccccc2c1=O`: the EC50 is 1.44 µM.

Take `COCCn1c(N)c(C(=O)NS(=O)(=O)c2ccc(C)cc2)c(=O)[nH]c1=O`: the EC50 was > 15 µM (inactive). As for `CCS(=O)(=O)c1nc(S(=O)(=O)c2ccc(C)cc2)c(NCCN2CCOCC2)s1`, the EC50 was > 15 µM (inactive). As for `Cc1ccc(-c2cc([C@H]3[C@@H]4C=CCC[C@@]4(C)C(=O)N3Cc3ccccc3)ccc2F)cc1`, the EC50 was 3.44 µM. Regarding `Cc1ccc(-n2cc3c(-c4cccc(Br)c4)nnc(C)c3n2)cc1`, the EC50 is 7.09 µM. Turning to `COc1ccc(-c2c/c(=N\c3nc(-c4ccccc4)c(C)s3)c3ccccc3o2)cc1O`, the EC50 is 11 µM.

For `O=C(Nc1nnc(C2CC2)o1)c1ccc(S(=O)(=O)N2CCCc3ccccc32)cc1`, the EC50 was 1.34 µM. To `COc1ccccc1C(=O)NNC(=O)C(=O)Nc1ccc(C)c(Cl)c1` belongs 1.65 µM.

With `CN(C)c1ccc(/C=C/c2ccc3ccccc3[n+]2C)cc1`, the EC50 is 7.2 µM.

Turning to `CCCCCCCCCCCC1=C(O)C(=O)C=C(O)C1=O`, the EC50 was 1.67 µM. `COc1cc([N+](=O)[O-])cc(/C=N/NC(=O)c2ccc(C)nc2)c1O`: the EC50 is 2.61 µM.

Turning to `COc1ccccc1OCC(=O)NNC(=S)NC(=O)c1ccco1`, the EC50 was 2.39 µM. With `O=C(NCc1ccco1)c1cc2ccc(O)cc2oc1=O` the figure was 5.85 µM; with `Cc1ccccc1C(=O)NNC(=S)NC(=O)c1cccs1`, 2.31 µM; with `O=C1C(Cl)=C(Nc2ccc3cn[nH]c3c2)C(=O)c2ccccc21`, 2.21 µM.

For the molecule `O=C(/C=C/c1ccccc1)c1cc(Br)ccc(=O)c1O`, the EC50 is 1.33 µM. In the case of `CCCOC(=O)c1ccc(Oc2c(-c3ccc(OCC)cc3O)n[nH]c2C)cc1`, the EC50 was 2.02 µM.

Turning to `CCCn1c(NC(=O)c2cccc(C)c2C)nc2ccccc21`, the EC50 was 7.37 µM. With `Cc1ccccc1NC1=C/C(=N\S(=O)(=O)c2ccc(C(=O)O)cc2)c2ccccc2C1=O` the figure was 1.9 µM; with `COc1ccc2[nH]c3c(C)c4ccncc4c(C)c3c2c1`, 1.87 µM; with `Cc1ccc(Cl)cc1N1CCN(C(=O)c2cccc3c(=O)c(C)c(-c4ccccc4)oc23)CC1`, 4 µM. As to `O=c1cc(CSc2ccc(Cl)cc2)nc(-c2ccccn2)[nH]1`, the EC50 was 0.371 µM. With `O=C(CCCN1C(=O)/C(=C\c2cccs2)SC1=S)Nc1cc([N+](=O)[O-])ccc1O`, the concentration giving a half-maximal response (EC50) is 5.04 µM. For the molecule `COc1ccccc1/C=N\Nc1cc(C)nc(-n2nc(C)cc2C)n1`, the half-maximal effective concentration (EC50) is 6.26 µM. With `O=C(N/N=C/c1cc([N+](=O)[O-])ccc1O)c1cc(-c2ccccc2)nc2ccccc12` the figure was 0.603 µM; with `Cc1cc(C)c2ccc(N)nc2c1O`, 3.33 µM. As for `CCOC(=O)c1c(NS(=O)(=O)c2ccc(Br)cc2)sc2c1CCC2`, the EC50 was 1.6 µM. Consider `CCCn1c(=O)c(C(=O)Nc2ncccc2C)c(O)c2ccccc21`, for which the EC50 was 5.16 µM. For `COc1ccc(C(=O)c2coc3c2C(=O)C(=O)c2ccccc2-3)cc1`, the EC50 was 5.65 µM. As to `COCCn1c(N)c(C(=O)Nc2sc3c(c2C(=O)OC)CCCC3)c2nc3ccccc3nc21`, the concentration giving a half-maximal response (EC50) is 4.57 µM. As for `COc1ccc(N2CCN(C(=O)Cc3csc(NC(=O)Nc4ccccc4OC)n3)CC2)cc1`, the EC50 is 12.7 µM. For the molecule `CC(=O)OCC1=C(C(=O)O)N2C(=O)C(NC(=O)c3ccc(COc4cccc(Cl)c4Cl)o3)C2SC1` (stereo unspecified), the EC50 was 2.79 µM. To `Cn1cc(C(=O)c2ccc(Cl)cc2Cl)cc1C(=O)N/N=C(\N)COc1cccc(C(F)(F)F)c1` belongs 3.22 µM; to `Nc1c(-c2ccccc2)c(CSc2nc3ccccc3[nH]2)nn1-c1cccc(Cl)c1`, 1.51 µM. Regarding `COC(=O)c1cc(-c2ccc(Br)cc2)c2c(=O)[nH]c(=O)n(C)c2n1`, the EC50 is 1.22 µM.

`COc1ccc(-c2cc(C3CCN(c4ncccc4[N+](=O)[O-])CC3)[nH]n2)cc1`: the concentration for a half-maximal effect (EC50) was 5.01 µM. As for `Cc1nn(C)c(Cl)c1CN1CCCC(C(=O)Nc2ccc(-c3cscn3)cc2)C1` (stereo unspecified), the EC50 is > 15 µM (inactive).

As for `COc1ccc(-c2noc(-c3ccccc3-c3ccccc3)n2)cc1`, the EC50 is 8.18 µM.

As to `O=[N+]([O-])c1ccc(O)c(N=Cc2sc3ccccc3c2O)c1`, the EC50 was 2.97 µM.

Consider `NNc1nc(Nc2ccccc2)nc(Nc2ccccc2)n1`, for which the EC50 is 4.04 µM.

As for `Cc1ccc(C(=O)NC(=S)NNC(=O)c2ccccc2O)cc1`, the EC50 was 0.459 µM. Take `COc1cccc2c1C(=O)c1c(O)c3c(c(O)c1C2=O)C[C@@](O)(C(=O)CO)C[C@@H]3O[C@H]1C[C@H](N)[C@H](O)[C@H](C)O1`: the EC50 was 1.15 µM. To `CCc1ccc2c(c1)C1(NN=C(c3cccc4ccccc34)S1)C(=O)N2` (stereo unspecified) belongs 0.115 µM; to `Cc1cc(NC(=O)c2c(F)cccc2Cl)n(-c2nc3ccccc3[nH]2)n1`, 8.04 µM; to `CC(/C=C1\SC(=O)N(CC(=O)Nc2ccc(O)cc2)C1=O)=C\c1ccccc1`, 8.02 µM.

On to `COc1cc([N+](=O)[O-])cc(/C=N/NC(=O)c2cncc(Br)c2)c1O`, for which the half-maximal effective concentration (EC50) was 0.97 µM. To `O=[N+]([O-])c1ccc(Cl)cc1Sc1nc2ccccc2o1` belongs 1.67 µM; to `Cc1cc(C)c(-c2cc(NC(=O)COC(=O)c3ccc(CO)cc3)n(-c3ccccc3)n2)cc1C`, 8.32 µM. With `COc1ccc(C(=O)NNC(=S)NC(=O)c2ccc(Br)o2)cc1OC` the figure was 0.779 µM; with `O=C1C(NS(=O)(=O)c2cccs2)=C(N2CCN(c3cccc(C(F)(F)F)c3)CC2)C(=O)c2ccccc21`, 8.85 µM. In the case of `Oc1nc(Nc2ccccc2)sc1/C=C1\C=Nc2ccccc21`, the EC50 is 9.16 µM.

Turning to `O=C(N/N=C\c1c(O)ccc2ccccc12)c1cncc(Br)c1`, the EC50 is 1.31 µM. With `CCN(CC)c1ccc(-c2nn3c(-c4ccccc4OC)nnc3s2)cc1` the figure was 6.21 µM; with `CC(C)(C)c1ccc(S(=O)(=O)N2CCC(c3nc4ccc(Cl)cc4[nH]3)CC2)cc1`, 5.11 µM; with `O=C(N/N=C/c1cc2c3c(c1O)CCCN3CCC2)c1ccccc1O`, 7.14 µM. Take `O=C(Nc1cccc(-c2nc3ccccc3[nH]2)c1)c1ccc(C(=O)Nc2cccc(-c3nc4ccccc4[nH]3)c2)cc1`: the EC50 was > 15 µM (inactive). Take `c1ccc(-c2nc(NCc3ccco3)c3ccccc3n2)nc1`: the EC50 was 4.7 µM. In the case of `COc1ccc(S(=O)(=O)N2CCN=C2SCc2cccc(C)c2)cc1`, the EC50 was > 15 µM (inactive). Turning to `CN1CCN(C(c2ccc(C(F)(F)F)cc2)c2cc(Cl)c3cccnc3c2O)CC1` (stereo unspecified), the EC50 was 0.682 µM. Turning to `CC(C)Cn1c(N)c(C(=O)NCc2cccs2)c2nc3ccccc3nc21`, the EC50 was 5.37 µM. `CCC(C)Sc1cc(C(F)(F)F)c(C(=O)Nc2ccc(Cl)cc2)cn1` (stereo unspecified): the EC50 is 7.31 µM.

Consider `O=c1cc(-c2ccccc2Cl)oc2ccc([N+](=O)[O-])c(O)c12`, for which the EC50 is 3.25 µM. As for `O=C(/C(=N\Nc1ccc([N+](=O)[O-])cc1)Sc1nnnn1-c1ccccc1)c1ccccc1`, the 50% effective concentration (EC50) was 5.46 µM.

Regarding `COc1ccccc1C(=O)Nc1nnc(SCC(=O)NCC2CCCO2)s1` (stereo unspecified), the EC50 is > 15 µM (inactive). As for `O=C(/C=C/c1ccco1)Nc1nc(-c2ccccn2)cs1`, the EC50 is 0.362 µM.

As to `COCc1cc(=O)[nH]c(Nc2nc3ccccc3o2)n1`, the concentration giving a half-maximal response (EC50) is 2.66 µM. With `Cc1ccc(S(=O)(=O)N2c3ccccc3OCC2C(C)(C)C)cc1` (stereo unspecified) the figure was 2.59 µM.
